ChEMBL document CHEMBL1649227, “In vitro antiviral activity of V-073 against polioviruses” (Antimicrob Agents Chemother, 2009)

What was measured:
Type in all cases: functional, organism-based
[1] = system: Enterovirus C; assay: Antiviral activity against Poliovirus 10235 serotype PV1 obtained from circulating vaccine infected in […] LLC-MK2 cells assessed as inhibition of viral-replication induced cytopathic effect; settings: 10235 serotype PV1, LLC-MK2
[2] = system: Enterovirus C; assay: Antiviral activity against Poliovirus 10236 serotype PV1 obtained from circulating vaccine infected in […] LLC-MK2 cells assessed as inhibition of viral-replication induced cytopathic effect; settings: 10236 serotype PV1, LLC-MK2
[3] = system: Enterovirus C; assay: Antiviral activity against Poliovirus 10238 serotype PV1 obtained from circulating vaccine infected in […] LLC-MK2 cells assessed as inhibition of viral-replication induced cytopathic effect; settings: 10238 serotype PV1, LLC-MK2
[4] = system: Enterovirus C; assay: Antiviral activity against Poliovirus 10237 serotype PV1 obtained from circulating vaccine infected in […] LLC-MK2 cells assessed as inhibition of viral-replication induced cytopathic effect; settings: 10237 serotype PV1, LLC-MK2
[5] = system: Enterovirus C; assay: Antiviral activity against Poliovirus 10239 serotype PV1 obtained from circulating vaccine infected in […] LLC-MK2 cells assessed as inhibition of viral-replication induced cytopathic effect; settings: 10239 serotype PV1, LLC-MK2
[6] = system: Enterovirus C; assay: Antiviral activity against Poliovirus 10240 serotype PV1 obtained from circulating vaccine infected in […] LLC-MK2 cells assessed as inhibition of viral-replication induced cytopathic effect; settings: 10240 serotype PV1, LLC-MK2
[7] = system: Enterovirus C; assay: Antiviral activity against Poliovirus 10241 serotype PV1 obtained from circulating vaccine infected in […] LLC-MK2 cells assessed as inhibition of viral-replication induced cytopathic effect; settings: 10241 serotype PV1, LLC-MK2
[8] = system: Enterovirus C; assay: Antiviral activity against Poliovirus 10242 serotype PV1 obtained from circulating vaccine infected in […] LLC-MK2 cells assessed as inhibition of viral-replication induced cytopathic effect; settings: 10242 serotype PV1, LLC-MK2
[9] = system: Enterovirus C; assay: Antiviral activity against Poliovirus 10690 serotype PV1 obtained from circulating vaccine infected in […] LLC-MK2 cells assessed as inhibition of viral-replication induced cytopathic effect; settings: 10690 serotype PV1, LLC-MK2
[10] = system: Enterovirus C; assay: Antiviral activity against Poliovirus 10691 serotype PV1 obtained from circulating vaccine infected in […] LLC-MK2 cells assessed as inhibition of viral-replication induced cytopathic effect; settings: 10691 serotype PV1, LLC-MK2
[11] = system: Enterovirus C; assay: Antiviral activity against Poliovirus 10692 serotype PV1 obtained from circulating vaccine infected in […] LLC-MK2 cells assessed as inhibition of viral-replication induced cytopathic effect; settings: 10692 serotype PV1, LLC-MK2
[12] = system: Enterovirus C; assay: Antiviral activity against Poliovirus 10693 serotype PV1 obtained from circulating vaccine infected in […] LLC-MK2 cells assessed as inhibition of viral-replication induced cytopathic effect; settings: 10693 serotype PV1, LLC-MK2
[13] = system: Enterovirus C; assay: Antiviral activity against Poliovirus 10694 serotype PV1 obtained from immunodeficient chronic excretor infected in […] LLC-MK2 cells assessed as inhibition of viral-replication induced cytopathic effect; settings: 10694 serotype PV1, LLC-MK2
[14] = system: Enterovirus C; assay: Antiviral activity against Poliovirus 10695 serotype PV1 obtained from immunodeficient chronic excretor infected in […] LLC-MK2 cells assessed as inhibition of viral-replication induced cytopathic effect; settings: 10695 serotype PV1, LLC-MK2
[15] = system: Enterovirus C; assay: Antiviral activity against Poliovirus 10668 serotype PV1 obtained from immunodeficient chronic excretor infected in […] LLC-MK2 cells assessed as inhibition of viral-replication induced cytopathic effect; settings: 10668 serotype PV1, LLC-MK2
[16] = system: Enterovirus C; assay: Antiviral activity against Poliovirus 10689 serotype PV1 obtained from immunodeficient chronic excretor infected in […] LLC-MK2 cells assessed as inhibition of viral-replication induced cytopathic effect; settings: 10689 serotype PV1, LLC-MK2
[17] = system: Enterovirus C; assay: Antiviral activity against Poliovirus 10223 serotype PV1 obtained from immunodeficient chronic excretor infected in […] LLC-MK2 cells assessed as inhibition of viral-replication induced cytopathic effect; settings: 10223 serotype PV1, LLC-MK2
[18] = system: Enterovirus C; assay: Antiviral activity against Poliovirus 10222 serotype PV1 obtained from immunodeficient chronic excretor infected in […] LLC-MK2 cells assessed as inhibition of viral-replication induced cytopathic effect; settings: 10222 serotype PV1, LLC-MK2
[19] = system: Enterovirus C; assay: Antiviral activity against Poliovirus 10225 serotype PV1 obtained from immunodeficient chronic excretor infected in […] LLC-MK2 cells assessed as inhibition of viral-replication induced cytopathic effect; settings: 10225 serotype PV1, LLC-MK2
[20] = system: Enterovirus C; assay: Antiviral activity against Poliovirus 10224 serotype PV1 obtained from immunodeficient chronic excretor infected in […] LLC-MK2 cells assessed as inhibition of viral-replication induced cytopathic effect; settings: 10224 serotype PV1, LLC-MK2
[21] = system: Enterovirus C; assay: Antiviral activity against Poliovirus Brunhilde serotype PV1 infected in […] LLC-MK2 cells assessed as inhibition of viral-replication induced cytopathic effect
[22] = system: Enterovirus C; assay: Antiviral activity against Poliovirus Mahoney serotype PV1 infected in […] LLC-MK2 cells assessed as inhibition of viral-replication induced cytopathic effect
[23] = system: Enterovirus C; assay: Antiviral activity against Poliovirus PV1-LSc/2ab serotype PV1 vaccine-derived infected in […] LLC-MK2 cells assessed as inhibition of viral-replication induced cytopathic effect; settings: PV1-LSc/2ab serotype PV1, LLC-MK2
[24] = system: Enterovirus C; assay: Antiviral activity against Poliovirus 10229 serotype PV2 obtained from circulating vaccine infected in […] LLC-MK2 cells assessed as inhibition of viral-replication induced cytopathic effect; settings: 10229 serotype PV2, LLC-MK2
[25] = system: Enterovirus C; assay: Antiviral activity against Poliovirus 10230 serotype PV2 obtained from circulating vaccine infected in […] LLC-MK2 cells assessed as inhibition of viral-replication induced cytopathic effect; settings: 10230 serotype PV2, LLC-MK2
[26] = system: Enterovirus C; assay: Antiviral activity against Poliovirus 10231 serotype PV2 obtained from circulating vaccine infected in […] LLC-MK2 cells assessed as inhibition of viral-replication induced cytopathic effect; settings: 10231 serotype PV2, LLC-MK2
[27] = system: Enterovirus C; assay: Antiviral activity against Poliovirus 10232 serotype PV2 obtained from circulating vaccine infected in […] LLC-MK2 cells assessed as inhibition of viral-replication induced cytopathic effect; settings: 10232 serotype PV2, LLC-MK2
[28] = system: Enterovirus C; assay: Antiviral activity against Poliovirus 10233 serotype PV2 obtained from circulating vaccine infected in […] LLC-MK2 cells assessed as inhibition of viral-replication induced cytopathic effect; settings: 10233 serotype PV2, LLC-MK2
[29] = system: Enterovirus C; assay: Antiviral activity against Poliovirus 10234 serotype PV2 obtained from circulating vaccine infected in […] LLC-MK2 cells assessed as inhibition of viral-replication induced cytopathic effect; settings: 10234 serotype PV2, LLC-MK2
[30] = system: Enterovirus C; assay: Antiviral activity against Poliovirus 10219 serotype PV2 obtained from circulating vaccine infected in […] LLC-MK2 cells assessed as inhibition of viral-replication induced cytopathic effect; settings: 10219 serotype PV2, LLC-MK2
[31] = system: Enterovirus C; assay: Antiviral activity against Poliovirus 10220 serotype PV2 obtained from circulating vaccine infected in […] LLC-MK2 cells assessed as inhibition of viral-replication induced cytopathic effect; settings: 10220 serotype PV2, LLC-MK2

COc1ccc(OCc2ccc(COc3c(Cl)cccc3Cl)cc2)c(Cl)c1
EC50 [1]: 18 nM | EC50 [2]: 29 nM | EC50 [3]: 14 nM | EC50 [4]: 11 nM | EC50 [5]: 14 nM | EC50 [6]: 15 nM | EC50 [7]: 83 nM | EC50 [8]: 17 nM | EC50 [9]: 29 nM | EC50 [10]: 18 nM | EC50 [11]: 29 nM | EC50 [12]: 8 nM | EC50 [13]: 14 nM | EC50 [14]: 8 nM | EC50 [15]: 21 nM | EC50 [16]: 42 nM | EC50 [17]: 10 nM | EC50 [18]: 15 nM | EC50 [19]: 17 nM | EC50 [20]: 69 nM | EC50 [21]: 18 nM | EC50 [22]: 76 nM | EC50 [23]: 17 nM | EC50 [24]: 20 nM | EC50 [25]: 36 nM | EC50 [26]: 28 nM | EC50 [27]: 19 nM | EC50 [28]: 24 nM | EC50 [29]: 9 nM | EC50 [30]: 23 nM | EC50 [31]: 10 nM
